In one assay the test system is Classical Pathway. The assay can be described thus: Inhibition of Classical pathway-mediated lysis of antibody-sensitized sheep erythrocytes in normal human serum. The class given is biochemical. The method, then:
To determine whether the interaction of C2 with ShTORE-ed-1 could affect the normal interaction of C2 with other complement proteins and thereby inhibit complement activation, the effect of the TORE-ed-1 peptide on complement activation was assessed. The ability of the TORE-ed-1 peptide to inhibit the lysis of antibody-sensitized sheep erythrocytes, in the presence of normal human serum, NHS (and therefore in the presence of complement proteins C1 through to […]), in a dose-dependent manner, was used as a measure of its ability to inhibit the Classical Pathway. The extent of haemolysis was determined by spectrophotometric measurement of haemoglobin release at 412 nm. An IC60 value of approximately 10 μM was found (FIG. 11A and B).
(§1) FIG. 11(A) and (B) Effect of increasing TORE-ed1 peptide on the complement-mediated lysis of sensitized sheep red blood cells in the presence of normal human serum as a source of complement. FIG. 11(C) and (D) Effect of increasing TORE-ed1 peptide preincubated with C2 on haemolysis in the presence of human serum in which C2 is limiting. FIG. 11(E) effect of various Tore peptides and Tore related C4b-derived peptides on complement mediated lysis.

A short description of assay [1]: Immune complex inflammation in mouse ear (human albumin i.v., anti-HA s.c.). The assay is classed as in vivo, Mice. The protocol: FIG. 22: Mice (7 or 8 per group) injected with human albumin (HA) 10 mg/kg i.v. (200 μl of a solution 1 mg/ml in Evans blue1%). After 5 min anti-HA injected s.c. in situ (in ear). Test compounds then injected and after 4 h evaluations made for reduction of inflammation. Oedema was evaluated by weight. Plasma extravasation as measure of microvascular permeability or haemorrage was measured by extraction of extravasated Evan's blue dye with formamide from injected ears. As well as subcutaneous (s.c.) administration of H17 (the test compound of formula HEVKIKHFSPY at two concentrations), it was also given intravenously (0.1 mg/kg). The positive control for reduction in inflammation in this experiment was cromolyn.

The target in assay [2] is T1, human complement C2 (Homo sapiens, UniProt P06681).
T1 sequence (P06681 21-752): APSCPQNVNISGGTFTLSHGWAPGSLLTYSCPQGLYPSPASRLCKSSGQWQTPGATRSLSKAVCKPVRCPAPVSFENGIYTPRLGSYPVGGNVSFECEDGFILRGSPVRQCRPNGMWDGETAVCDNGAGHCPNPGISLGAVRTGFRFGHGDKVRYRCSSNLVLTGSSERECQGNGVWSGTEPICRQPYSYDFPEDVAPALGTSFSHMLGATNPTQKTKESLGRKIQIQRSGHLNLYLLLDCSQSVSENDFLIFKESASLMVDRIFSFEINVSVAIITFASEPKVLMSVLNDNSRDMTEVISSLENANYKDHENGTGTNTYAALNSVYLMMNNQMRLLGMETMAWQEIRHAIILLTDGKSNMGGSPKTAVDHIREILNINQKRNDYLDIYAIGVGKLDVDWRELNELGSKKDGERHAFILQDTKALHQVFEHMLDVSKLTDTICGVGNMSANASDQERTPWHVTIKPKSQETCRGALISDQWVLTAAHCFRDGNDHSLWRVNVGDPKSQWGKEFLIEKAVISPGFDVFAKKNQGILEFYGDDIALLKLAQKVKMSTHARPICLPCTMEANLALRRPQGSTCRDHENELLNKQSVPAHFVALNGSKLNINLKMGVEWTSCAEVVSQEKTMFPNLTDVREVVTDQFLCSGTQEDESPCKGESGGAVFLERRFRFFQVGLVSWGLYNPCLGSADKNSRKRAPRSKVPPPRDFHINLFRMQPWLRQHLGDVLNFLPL
The assay can be described thus: Haemolysis with C2-deficient human serum reconstituted with C2, peptide preincubated with C2. The assay is classed as biochemical. To be noted: peptide preincubated with C2 before addition to C2-depleted serum. The protocol:
As an additional confirmation that TORE-ed-1 specifically binds to human complement C2, C2-deficient human serum with enough C2 added to reconstitute haemolytic activity, was used in the same assay.
as §1

Assay [3] has as its target T1, human complement C2. Nature of the assay: Receptor affinity chromatography with immobilised ed-1 peptide. On the set-up: One litre of serum-free medium which had maintained the cells; endogenous in cells; host or cells: THP-1 (human macrophage-like cells), conditioned serum-free medium. The class given is binding. The text has this: In order to identify a likely ligand, the putative ligand-binding domain of ShTORE, extracellular domain 1 (ed-1), was used in receptor affinity chromatography. It was assumed that the cells expressing the receptor themselves produced the ligand in an “autocrine” manner. The cells chosen were the macrophage-like (human) THP-1 cells. These were adapted to grow in conditioned, serum-free medium in order to increase the chances of finding the ligand for TORE. One litre of serum-free medium which had maintained the cells, and as a control one litre of serum-free medium without cells, was passed through identical epoxy-activated Sepharose 6B columns with the 27-mer ShTORE-ed-1 peptide attached. Fractions were collected from a low pH elution and 20 μl aliquots run on SDS-PAGE. An 83 kDa protein band was identified (FIG. 10A, lane 1). The fraction was concentrated, transferred to problot and stained with Coomassie Brilliant blue. The band was then excised and the N-terminal sequence determined. The resulting six residues indicated the protein to be human complement protein C2. The fully glycosylated version of C2, however should have been 102 kDa.

This note sets out measurements from patent publication US20030181362A1, “Receptor” (priority 2000, published 2003).

Regarding “SSTSDIRLVIHTKTGPIYIKST (shistosoma haematobium) [SEQ ID NO 2]”, the “complement inhibition in vitro” value in the assay on Classical Pathway is reported as “inhibit complement action in vitro”.

As to “HEVKIKSPY [TOR-ed1 peptide; probably a misprint of …]”, the “inflammation mediated by immune complexes and Classical pathway complement (Type III hypersensitivity)” value in assay [1] (in vivo) is “reduce inflammation”.

Regarding “HEVKIKHFSPY (shistosoma haematobium) [H17]”, in assay [1] (1 μg dose, 4 h), the “reduction of haemorrage (Evans blue extravasation)” value came to 30% and the “reduction of oedema (by weight)” value is 28%. Moreover, the “complement inhibition in vitro” value in the assay on Classical Pathway is listed as “capable of effective complement inhibition in vitro”.

On to “FEVKITPGKPY [C4b β chain derived peptide]”, for which, in the assay on Classical Pathway, the “complement inhibition in vitro” value is given as “shown to inhibit complement in vitro”.

Consider “NH2-Met-Ser-Pro-Ser-Leu-Val-Ser-Asp-Thr-Gln-Lys-His-Glu-Arg-Gly-Ser-His-Glu-Val-Lys-Ile-Lys-His-Phe-Ser-Pro-Tyr-CO2H (H-MSPSLVSDTQKHERGSHEVKIKHFSPY-OH) [TORE-ed-1 peptide, 27-mer peptide of extracellular domain 1 of ShTORE]”, for which, in the assay with human complement C2 [2], the “inhibition of haemolytic activity” value was “inhibit haemolytic activity”. In the assay with human complement C2 [3], the “interaction with C2” value is reported as “interact with human complement protein C2”. For the same substance, the “complement inhibition in vitro” value in the assay with Classical Pathway is on record as “inhibit complement action in vitro”. The “concentration able to inhibit the haemolytic activity of C2 from the Classical pathway” value in the assay on Classical Pathway (normal human serum) was found to be 10 µM. For the same substance, the “IC60, inhibition of lysis of antibody-sensitized sheep erythrocytes” value with Classical Pathway (normal human serum, haemoglobin release at 412 nm) is “approximately 10 μM”.
